# Patent publication US8247211B2, “Glycopeptide antibiotics” (American Cyanamid Company, priority 2001, dated 2012)
# How the values were obtained:
# Assay in all cases: In vitro antibacterial evaluation: minimum inhibitory concentration (MIC), broth dilution method
# Assay type in all cases: cell-based
# Settings in all cases: 18 hours at 35° C.
# Enterococcus sp. = test system: Enterococcus sp.
# Procedure, shortened: (§1)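 Inoculum: 5×10^5 CFU/mL. Range: 64-0.06 μg/mL. Medium: Muller-Hinton II […]; NCCLS M7-A2 broth dilution. Endpoint: lowest concentration inhibiting growth. Strains include methicillin-, penicillin- and/or vancomycin-resistant clinical isolates.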
# Escherichia coli = test system: Escherichia coli
# Procedure, shortened: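 An MIC is reported for each organism as the least concentration giving inhibition, using broth dilution over 64-0.06 μg/mL with a 5×10^5 CFU/mL inoculum.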
# Staphylococcus sp. = test system: Staphylococcus sp.
# Procedure, shortened: as §1
# Streptococcus sp. = test system: Streptococcus sp.
# Procedure, shortened: as §1
# [1] = Enterococcus faecalis (GC 2242)
# [2] = Enterococcus faecalis (GC 2691)
# [3] = Enterococcus faecalis (GC 3059)
# [4] = broth dilution, inoculum 5×10^5 CFU/mL
# [5] = Streptococcus agalactiae (GC 4564)
# [6] = Streptococcus pneumoniae (ATCC 6301)
# [7] = Streptococcus pneumoniae (GC 1894)
# [8] = Streptococcus pneumoniae (GC 4565)
# [9] = Streptococcus pyogenes (GC 4563)
smiles,measurement,setting,value
"CC(c1ccccc1)C1NC(=O)CNC(=O)C(CO)NC(=O)C(C(O)C2CNC(=N)N2C2OC(CO)C(O)C(O)C2O)NC(=O)C(C(O)C2CNC(=N)N2)NC(=O)C(Cc2ccc(OC3OC(CO)C(OC4OC(COCC=C(c5ccccc5)c5ccccc5)C(O)C(O)C4O)C(O)C3O)cc2)NC1=O (stereo not drawn) [Example 241, Cyclo[glycyl-β-methylphenylalanyl-O-[4-O-[6-O-[3,3-diphenylprop-2-en-1-yl)hexopyranosyl]-hexopyranosyl]tyrosyl-3-(2-iminoimidazolidin-4-yl)seryl-3-(3-hexopyranosyl-2-iminoimidazolidin-4-yl)serylseryl]]",MIC Enterococcus avium (GC 4558),Enterococcus sp.,4 µg/mL
same,MIC Enterococcus faecalis (ATCC 29212),Enterococcus sp.,4 µg/mL
same,MIC Enterococcus faecalis (GC 2242),Enterococcus sp.; [1],4 µg/mL
same,MIC Enterococcus faecalis (GC 2691),Enterococcus sp.; [2],4 µg/mL
same,MIC Enterococcus faecalis (GC 3059),Enterococcus sp.; [3],2 µg/mL
same,MIC Enterococcus faecalis (GC 4552),Enterococcus sp.,4 µg/mL
same,MIC Enterococcus faecalis (GC 4553),Enterococcus sp.,4 µg/mL
same,MIC Enterococcus faecalis (GC 4554),Enterococcus sp.,4 µg/mL
same,MIC Enterococcus faecalis (GC 6189),Enterococcus sp.,2 µg/mL
same,MIC Enterococcus faecium (GC 2243),Enterococcus sp.,4 µg/mL
same,MIC Enterococcus faecium (GC 4556),Enterococcus sp.,4 µg/mL
same,MIC Enterococcus faecium (GC 4557),Enterococcus sp.,2 µg/mL
same,MIC Enterococcus faecalis (GC 2242),Enterococcus sp.; [4],4 µg/mL
same,MIC Enterococcus faecalis (GC 2691),Enterococcus sp.; [4],4 µg/mL
same,MIC Enterococcus faecalis (GC 3059),Enterococcus sp.; [4],2 µg/mL
same,MIC Escherichia coli (ATCC 25922),Escherichia coli,>64 µg/mL
same,MIC Escherichia coli (GC 4559),Escherichia coli,>64 µg/mL
same,MIC Escherichia coli (GC 4560),Escherichia coli,2 µg/mL
same,MIC Coagulase Negative Staphylococcus (GC 4547),Staphylococcus sp.,2 µg/mL
same,MIC Coagulase Negative Staphylococcus (GC 4548),Staphylococcus sp.,1 µg/mL
same,MIC Coagulase Negative Staphylococcus (GC 4549),Staphylococcus sp.,2 µg/mL
same,MIC Coagulase Negative Staphylococcus (GC 4551),Staphylococcus sp.,4 µg/mL
same,MIC Coagulase Negative Staphylococcus (GC 6257),Staphylococcus sp.,2 µg/mL
same,MIC Staphylococcus aureus (ATCC 29213),Staphylococcus sp.,2 µg/mL
same,MIC Staphylococcus aureus (GC 1131),Staphylococcus sp.,2 µg/mL
same,MIC Staphylococcus aureus (GC 3051),Staphylococcus sp.,2 µg/mL
same,MIC Staphylococcus aureus (GC 3053),Staphylococcus sp.,2 µg/mL
same,MIC Staphylococcus aureus (GC 4541),Staphylococcus sp.,2 µg/mL
same,MIC Staphylococcus aureus (GC 4542),Staphylococcus sp.,2 µg/mL
same,MIC Staphylococcus aureus (GC 4544),Staphylococcus sp.,2 µg/mL
same,MIC Staphylococcus aureus (GC 4545),Staphylococcus sp.,2 µg/mL
same,MIC Staphylococcus aureus-SMITH (GC 4543),Staphylococcus sp.,2 µg/mL
same,MIC Staphylococcus haemolyticus (GC 4546),Staphylococcus sp.,2 µg/mL
same,MIC Streptococcus agalactiae (GC 4564),Streptococcus sp.; [5],<0.06 µg/mL
same,MIC Streptococcus pneumoniae (ATCC 6301),Streptococcus sp.; [6],<0.06 µg/mL
same,MIC Streptococcus pneumoniae (GC 1894),Streptococcus sp.; [7],<0.06 µg/mL
same,MIC Streptococcus pneumoniae (GC 4565),Streptococcus sp.; [8],<0.06 µg/mL
same,MIC Streptococcus pyogenes (GC 4563),Streptococcus sp.; [9],<0.06 µg/mL
same,MIC Streptococcus agalactiae (GC 4564),Streptococcus sp.; [4],<0.06 µg/mL
same,MIC Streptococcus pneumoniae (ATCC 6301),Streptococcus sp.; [4],<0.06 µg/mL
same,MIC Streptococcus pneumoniae (GC 1894),Streptococcus sp.; [4],<0.06 µg/mL
same,MIC Streptococcus pneumoniae (GC 4565),Streptococcus sp.; [4],<0.06 µg/mL
same,MIC Streptococcus pyogenes (GC 4563),Streptococcus sp.; [4],<0.06 µg/mL
CC(c1ccccc1)C1NC(=O)CNC(=O)C(CO)NC(=O)C(CC2CNC(=N)N2C2OC(CO)C(O)C(O)C2O)NC(=O)C(CC2CNC(=N)N2)NC(=O)C(Cc2ccc(OC3OC(CO)C(OC4OC(CO)C(OCc5ccc(OCc6ccccc6)cc5)C(O)C4O)C(O)C3O)cc2)NC1=O (centres unmarked) [Example 246a],MIC Enterococcus avium (GC 4558),Enterococcus sp.,2 µg/mL
same,MIC Enterococcus faecalis (ATCC 29212),Enterococcus sp.,4 µg/mL
same,MIC Enterococcus faecalis (GC 2242),Enterococcus sp.; [1],4 µg/mL
same,MIC Enterococcus faecalis (GC 2691),Enterococcus sp.; [2],8 µg/mL
same,MIC Enterococcus faecalis (GC 3059),Enterococcus sp.; [3],4 µg/mL
same,MIC Enterococcus faecalis (GC 4552),Enterococcus sp.,4 µg/mL
same,MIC Enterococcus faecalis (GC 4553),Enterococcus sp.,2 µg/mL
same,MIC Enterococcus faecalis (GC 4554),Enterococcus sp.,4 µg/mL
same,MIC Enterococcus faecalis (GC 6189),Enterococcus sp.,4 µg/mL
same,MIC Enterococcus faecium (GC 2243),Enterococcus sp.,4 µg/mL
same,MIC Enterococcus faecium (GC 4556),Enterococcus sp.,4 µg/mL
same,MIC Enterococcus faecium (GC 4557),Enterococcus sp.,2 µg/mL
same,MIC Enterococcus faecalis (GC 2242),Enterococcus sp.; [4],4 µg/mL
same,MIC Enterococcus faecalis (GC 2691),Enterococcus sp.; [4],8 µg/mL
same,MIC Enterococcus faecalis (GC 3059),Enterococcus sp.; [4],4 µg/mL
same,MIC Escherichia coli (ATCC 25922),Escherichia coli,16 µg/mL
same,MIC Escherichia coli (GC 4559),Escherichia coli,16 µg/mL
same,MIC Escherichia coli (GC 4560),Escherichia coli,2 µg/mL
same,MIC Coagulase Negative Staphylococcus (GC 4547),Staphylococcus sp.,1 µg/mL
same,MIC Coagulase Negative Staphylococcus (GC 4548),Staphylococcus sp.,1 µg/mL
same,MIC Coagulase Negative Staphylococcus (GC 4549),Staphylococcus sp.,1 µg/mL
same,MIC Coagulase Negative Staphylococcus (GC 4551),Staphylococcus sp.,2 µg/mL
same,MIC Coagulase Negative Staphylococcus (GC 6257),Staphylococcus sp.,2 µg/mL
same,MIC Staphylococcus aureus (ATCC 29213),Staphylococcus sp.,2 µg/mL
same,MIC Staphylococcus aureus (GC 1131),Staphylococcus sp.,4 µg/mL
same,MIC Staphylococcus aureus (GC 3051),Staphylococcus sp.,1 µg/mL
same,MIC Staphylococcus aureus (GC 3053),Staphylococcus sp.,2 µg/mL
same,MIC Staphylococcus aureus (GC 4541),Staphylococcus sp.,1 µg/mL
same,MIC Staphylococcus aureus (GC 4542),Staphylococcus sp.,1 µg/mL
same,MIC Staphylococcus aureus (GC 4544),Staphylococcus sp.,2 µg/mL
same,MIC Staphylococcus aureus (GC 4545),Staphylococcus sp.,2 µg/mL
same,MIC Staphylococcus aureus-SMITH (GC 4543),Staphylococcus sp.,1 µg/mL
same,MIC Staphylococcus haemolyticus (GC 4546),Staphylococcus sp.,1 µg/mL
same,MIC Streptococcus agalactiae (GC 4564),Streptococcus sp.; [5],0.5 µg/mL
same,MIC Streptococcus pneumoniae (ATCC 6301),Streptococcus sp.; [6],0.25 µg/mL
same,MIC Streptococcus pneumoniae (GC 1894),Streptococcus sp.; [7],<0.12 µg/mL
same,MIC Streptococcus pneumoniae (GC 4565),Streptococcus sp.; [8],0.25 µg/mL
same,MIC Streptococcus pyogenes (GC 4563),Streptococcus sp.; [9],0.5 µg/mL
same,MIC Streptococcus agalactiae (GC 4564),Streptococcus sp.; [4],0.5 µg/mL
same,MIC Streptococcus pneumoniae (ATCC 6301),Streptococcus sp.; [4],0.25 µg/mL
same,MIC Streptococcus pneumoniae (GC 1894),Streptococcus sp.; [4],<0.12 µg/mL
same,MIC Streptococcus pneumoniae (GC 4565),Streptococcus sp.; [4],0.25 µg/mL
same,MIC Streptococcus pyogenes (GC 4563),Streptococcus sp.; [4],0.5 µg/mL
